Earlier results in patent publication US20080089936A1, “PROLONGED RELEASE FORMULATION OF ACTIVE PRINCIPLES HAVING A PH-DEPENDENT SOLUBILITY” (SANOFI-AVENTIS, priority 2005, published 2008).

Conditions: hypnotic agent, oral

Question: Which duration of action does the source give for Cc1ccc(-c2nc3ccc(C)cn3c2CC(=O)N(C)C)cc1 [zolpidem] here?
Answer: up to 6 hours
